Assay results taken from patent US7592478B2, “Ligand antagonists of RAR receptors and pharmaceutical/cosmetic applications thereof” (Galderma Research & Development, priority 2002, dated 2009).

Assays:
Format in all cases: cell-based
RAR alpha = biological target: T1, RAR alpha (Homo sapiens, UniProt P10276); assay: Transactivation test (luciferase reporter, stably transfected HeLa cells), RAR alpha; details: for Kd: Schild regression vs reference agonist 4-[2-(5,5,8,8-tetramethyl-5,6,7,8-tetrahydro-2-naphthyl)propenyl]benzoic acid, read-out: RAR alpha Kdapp; for IC50: at the reference agonist concentration that gives 80% activation
T1 sequence (P10276 183-417 limits assumed): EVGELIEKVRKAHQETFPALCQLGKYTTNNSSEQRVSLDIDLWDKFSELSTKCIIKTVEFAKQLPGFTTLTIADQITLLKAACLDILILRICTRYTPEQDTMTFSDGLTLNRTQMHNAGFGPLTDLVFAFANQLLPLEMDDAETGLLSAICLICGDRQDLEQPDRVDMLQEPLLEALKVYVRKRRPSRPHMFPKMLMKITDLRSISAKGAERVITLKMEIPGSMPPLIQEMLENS
Method: (§1) The activation of receptors with an agonist (activator) in HeLa cells leads to the expression of a reporter gene, luciferase, which, in the presence of a substrate, generates light. The activation of the receptors may thus be measured by quantifying the luminescence produced after incubating the cells in the presence of a reference agonist. The inhibitory products displace the agonist from its site, thus preventing activation of the receptor. The activity is measured by quantifying the reduction in light produced. This measurement makes it possible to determine the inhibitory activity of the compounds according to the invention.
(§2) In this study, a constant is determined which represents the affinity of the molecule for the receptor. Since this value can fluctuate depending on the basal activity and the expression of the receptor, it is referred to as the Kd apparent (KdApp).
(§3) To determine this constant, “crossed curves” of the test product against a reference agonist, 4-[2-(5,5,8,8-tetramethyl-5,6,7,8-tetrahydro-2-naphthyl)propenyl]benzoic acid, are performed in 96-well plates. The test product is used at 10 concentrations and the reference agonist at 7 concentrations. In each well, the cells are in contact with a concentration of the test product and a concentration of the reference agonist, 4-[2-(5,5,8,8-tetramethyl-5,6,7,8-tetrahydro-2-naphthyl)propenyl]benzoic acid. Measurements are also taken for the total agonist (4-[2-(5,5,8,8-tetramethyl-5,6,7,8-tetrahydro-2-naphthyl)propenyl]benzoic acid) and inverse agonist, 4-{(E)-3-[4-(4-tert-butylphenyl)-5,5,8,8-tetramethyl-5,6,7,8-tetrahydro-2-naphthyl]-3-oxopropenyl}benzoic acid, controls.
(§4) These crossed curves make it possible to determine the AC50 values (concentration at which 50% activation is observed) for the reference ligand at various concentrations of test product. These AC50 values are used to calculate the Schild regression by plotting a straight line corresponding to the Schild equation (“quantitation in receptor pharmacology” Terry P. Kenakin, Receptors and Channels, 2001, 7, 371-385).
(§5) In the case of an antagonist, an IC50 value (concentration that inhibits 50% of the activity) is calculated by plotting the curve of the product at the concentration of the reference ligand that gives 80% activation.
(§6) The HeLa cell lines used are stable transfectants containing the plasmids ERE-βGlob-Luc-SV-Neo (reporter gene) and RAR (α, β, γ) ER-DBD-puro. These cells are inoculated into 96-well plates at a rate of 10000 cells per well in 100 μl of DMEM medium without phenol red, and supplemented with 10% defatted calf serum. The plates are then incubated at 37° C. and 7% CO2 for 4 hours.
(§7) The various dilutions of the test products, of the reference ligand (4-[2-(5,5,8,8-tetramethyl-5,6,7,8-tetrahydro-2-naphthyl)propenyl]benzoic acid), of the 100% control (100 nM 4-[2-(5,5,8,8-tetramethyl-5,6,7,8-tetrahydro-2-naphthyl)propenyl]benzoic acid) and of the 0% control (500 nM 4-{(E)-3-[4-(4-tert-butylphenyl)-5,5,8,8-tetramethyl-5,6,7,8-tetrahydro-2-naphthyl]-3-oxopropenyl}benzoic acid) are added at a rate of 5 μl per well. The plates are then incubated for 18 hours at 37° C. and 7% CO2.
(§8) The culture medium is removed by turning over and 100 μl of a 1:1 PBS/luciferine mixture is added to each well. After 5 minutes, the plates are read using the luminescence reader.

RAR beta = biological target: T2, RAR beta (Homo sapiens, UniProt P10826); assay: Transactivation test (luciferase reporter, stably transfected HeLa cells), RAR beta; details: for Kd: Schild regression vs reference agonist 4-[2-(5,5,8,8-tetramethyl-5,6,7,8-tetrahydro-2-naphthyl)propenyl]benzoic acid, read-out: RAR beta Kdapp; for IC50: at the reference agonist concentration that gives 80% activation
T2 sequence (P10826 183-417 limits assumed): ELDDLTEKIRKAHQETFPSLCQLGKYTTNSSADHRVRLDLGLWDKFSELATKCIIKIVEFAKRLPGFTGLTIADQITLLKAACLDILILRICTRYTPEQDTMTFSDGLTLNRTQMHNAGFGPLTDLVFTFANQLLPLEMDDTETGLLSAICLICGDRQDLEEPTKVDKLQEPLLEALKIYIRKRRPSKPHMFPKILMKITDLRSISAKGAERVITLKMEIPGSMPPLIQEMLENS
Method: as §1, §2, §3, §4, §5, §6, §7, §8

RAR gamma = biological target: T3, RAR gamma (Homo sapiens, UniProt P13631); assay: Transactivation test (luciferase reporter, stably transfected HeLa cells), RAR gamma; details: for Kd: Schild regression vs reference agonist 4-[2-(5,5,8,8-tetramethyl-5,6,7,8-tetrahydro-2-naphthyl)propenyl]benzoic acid, read-out: RAR gamma Kdapp; for IC50: at the reference agonist concentration that gives 80% activation
T3 sequence (P13631 185-419 limits assumed): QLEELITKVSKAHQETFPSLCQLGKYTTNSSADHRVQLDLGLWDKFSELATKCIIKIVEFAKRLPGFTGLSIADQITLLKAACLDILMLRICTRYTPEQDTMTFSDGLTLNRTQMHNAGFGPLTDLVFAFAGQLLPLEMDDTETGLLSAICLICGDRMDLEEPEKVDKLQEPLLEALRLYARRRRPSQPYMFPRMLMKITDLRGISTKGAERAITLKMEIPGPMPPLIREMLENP
Method: as §1, §2, §3, §4, §5, §6, §7, §8

Kd (RAR alpha) [µM] | IC50 (RAR alpha) [µM] | Kd (RAR beta) [µM] | IC50 (RAR beta) [µM] | Kd (RAR gamma) [µM] | IC50 (RAR gamma) [µM] | Structure (SMILES)
0.03 | 0.0525 | 0.008 | 0.0128 | 0.002 | 0.005 | Cc1ccc(C2=CCC(C)(C)c3cc([Se]C#Cc4ccc(C(=O)O)cc4)ccc32)cc1 [Example 1, 4-(8,8-Dimethyl-5-p-tolyl-7,8-dihydro-2-naphthylselanylethynyl)benzoic acid]
0.12 | 0.21 | 0.008 | 0.0128 | 0.002 | 0.005 | Cc1ccc(C2=CCC(C)(C)c3cc([Se]C#Cc4ccc(C(=O)O)c(F)c4)ccc32)cc1 [Example 9, 4-(8,8-Dimethyl-5-p-tolyl-7,8-dihydro-2-naphthylselanylethynyl)-2-fluorobenzoic acid]
0.5 | 0.875 | 0.12 | 0.192 | 0.06 | 0.15 | CN(C)c1ccc(C2=CCC(C)(C)c3cc(C(O)C#Cc4ccc(C(=O)O)cc4)ccc32)cc1 (stereo not drawn) [Example 19, 4-{3-[5-(4-Dimethylaminophenyl)-8,8-dimethyl-7,8-dihydro-2-naphthyl]-3-hydroxyprop-1-ynyl}benzoic acid]
